Data set [1] can be described thus: Lipophilicity as RM values by RP-TLC. Format: physicochemical. On the set-up: key: RM = log[(1/Rf) − 1]. Conditions: methanol/water 70/30, SD < 10%. The essentials:
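Reversed-phase TLC on silica gel plates impregnated with 5% (v/v) liquid paraffin, methanol/water 70/30 (v/v) mobile phase, saturated tanks at 24 °C, UV detection. RM = log[(1/Rf) − 1] from five Rf measurements.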

A short description of data set [2]: Reducing activity with the stable radical DPPH. An outline of the steps:
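DPPH (final 0.05 mM) in absolute ethanol mixed with an equal volume of compound at 0.05 or 0.1 mM, ethanol as control. Absorbance at 517 nm read at room temperature after 20 and 60 min, expressed as reducing activity RA%.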
(The DPPH test is a chemical assay of radical scavenging.)

In data set [3] the target is T1, Aβ40 (Homo sapiens, UniProt P05067).
T1 construct: Amyloid peptide Aβ40 was purchased from AnaSpec Co; purchased AnaSpec Co. (Fremont, CA, USA)
T1 sequence (P05067 672-711 limits assumed): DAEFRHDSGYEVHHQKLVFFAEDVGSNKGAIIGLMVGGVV
In words: Circular dichroism study of Aβ40 aggregation. Conditions: 50 µM compound, 50 µM Aβ40 (1:1), PB pH 7.33, 33 °C, 40 days. The source says: The pathogenesis of Alzheimer’s disease (AD) is widely associated with the aggregation of β-amyloid peptide (Aβ) either to soluble oligomers or to higher-order polymeric insoluble fibrils. As a result, one of the main therapeutic strategies against AD targets the aggregation process of Aβ, and a great number of small molecules are being investigated for their potential to intervene in the assembly of Aβ and inhibit its neurotoxicity in vitro and in vivo [64]. Circular dichroism (CD) spectroscopy is commonly used to probe the secondary structure of polypeptides and to monitor conformational changes and interactions of polypeptides with small molecules. The typical aggregation process of Aβ produces characteristic CD spectra over time that reflect the conformational changes that occur as the random coil monomers are converted into β-sheet oligomers, and then gradually to larger β-sheet formations that finally produce amyloid fibrils. CD is, therefore, a valuable tool to monitor the aggregation process of Aβ and to study the effect of potential aggregation inhibitors. To further investigate the pleiotropic effects of chalcones against AD, selected compounds from our library, were subjected to CD studies in order to evaluate their potential to interfere with the aggregation process of Aβ40. […] The aggregation spectra of plain Aβ40 show at day 0 the typical random coil peak (negative maximum at 198 nm) the intensity of which gradually decreases as the peptide forms β–sheet structures (negative maximum at 222 nm, day 15) that further aggregate to higher order polymeric fibrils. The precipitation of the insoluble fibrils from solution eventually results in the loss of CD signal (days 30 and 40). […] In view of the above results, chalcone derivatives bearing a three-carbon chain linker, specifically c2, c3, and c4, were subsequently studied in order to assess the effect of further derivatization and the presence of the chalcone moiety in the structure. […] Overall, our CD study identified three new structures capable of interfering with the aggregation process of Aβ, out of which compounds c2 and c4 display additional protective actions against AD and add to the pleiotropic profile of the chalcone derivatives.
Preparation of Aβ stocks and solutions. Amyloid peptide Aβ40 was purchased from AnaSpec Co. (Fremont, CA, USA) (>95% pure). Aβ40 was gently dissolved without vortexing in Type 1 (Milli-Q) water to a final concentration of 100 μM. Solutions of Aβ in phosphate buffer (PB, 10 mM, pH 7.33) were prepared by adding equal volumes of PB to aliquots of the aqueous solution stock to achieve final concentration of 50 µM. The proper amount of the compounds c2, c3, c4, di, dii, and dvi were added to the Aβ solutions to achieve concentration of 50 μM. The secondary structural changes of Aβ were monitored for 40 days by CD. During this period, the amyloid peptide solutions were kept at an incubator at 33 °C under quiescent conditions.
Circular dichroism measurements. CD spectra were recorded on a JASCO J-715 spectropolarimeter (Jasco Co., Tokyo, Japan), at 33 °C in the range of 190–260 nm with a 1 mm path length quartz cuvette. Each spectrum was the average of three scans at a speed of 100 nm·min^−1 and a resolution of 0.5 nm. Three independent experiments were run for each condition and in each case solutions of plain Aβ were run as control (Figure 8). The analysis of the CD data was performed using the OriginPro 9 program.
On the technique in general: Circular dichroism is the unequal absorption of left and right circularly polarised light.

`O=C(/C=C/C=C/c1ccc([N+](=O)[O-])cc1)c1ccc(OCCCOc2ccc(C(=O)/C=C/C=C/c3ccc([N+](=O)[O-])cc3)cc2)cc1` [c11, (2E,2′E,4E,4′E)-1,1′-((propane-1,3-diylbis(oxy))bis(4,1-phenylene))bis(5-(4-nitrophenyl)penta-2,4-dien-1-one)] displayed an RM in data set [1] of −0.88. In data set [2], the “RA% 100 μM 20 min” value is reported as “No” and the “RA% 100 μM 60 min” value was “no”.
In the same order, the values of `O=C(/C=C/c1cccc2ccccc12)c1ccccc1O` [b4, (E)-1-(2-hydroxyphenyl)-3-(naphthalen-1-yl) prop-2-en-1-one] are −0.03, 30% and 20%.
As to `CC(=O)c1ccc(OCCOc2ccc(C(C)=O)cc2)cc1` [di, 1,1′-((ethane-1,2-diylbis(oxy))bis(4,1-phenylene))diethanone], the “effect on the aggregation process of Aβ40 (CD spectra)” value in data set [3] is “did not significantly change the fibrillization course of Aβ40”. In data set [1], this compound registered an RM of 0.67.
In the case of `CC(=O)c1ccc(OCCCCCCCOc2ccc(C(C)=O)cc2)cc1` [dvi, 1,1′-((heptane-1,7-diylbis(oxy))bis-(4,1-phenylene)) diethanone], in data set [3], the “effect on the aggregation process of Aβ40 (CD spectra)” value is recorded as “did not significantly change the fibrillization course of Aβ40”. In addition, the RM in data set [1] came to 0.32.

For the origin of these results see article PMC6337391 (Molecules, 2019).
